The results in this text go back to patent US8829003B2, “Compounds for treating proliferative disorders” (Changzhou Le Sun Pharmaceuticals Limited, priority 2010, dated 2014).

Data set [1] concerns cancer cells. The data set can be described thus: MTT proliferation assay. To be noted: GI50 values only in FIG. 4. Format: cell-based. The source says:
C.1. MTT Proliferation Assay.
The compounds from the examples above were subjected to a standard cellular proliferation assay using the method described previously in S. Wang et al. J Med Chem. 2004, 47, 1662-1675. The data analysis used program Deltasoft 3™ and Microsoft Excel to determine GI50 values (concentration of test compound which inhibits cell growth by 50%).
Background: Tetrazolium dyes change colour on reduction, which living cells bring about.

Data set [2] is described as follows: Mouse pharmacokinetics, IV and oral dosing. To be noted: mice.
Experimental: For PK measurements male adult CD1 mice weighing 25-30 g (Charles River) are split into weight matched groups of 3 per group. IV dosed mice were restrained in individual restraining tubes, the tail was warmed in warm water to vasodilate the tail vein, and the IV bolus was then administered via the tail vein. Orally dosed mice were held at the scruff of the neck and dosed via a metal gavage directly into the stomach. Immediately after dosing mice are returned to their cage, plastic box cage with sawdust bedding, and food and water available. Blood samples were collected from the mouse under anaesthesia by cardiac puncture using a 1 mL syringe and 25 gauge needle at time zero and at intervals up to 8 h. Harvested blood was centrifuged at 7000×G for 2 minutes, and the plasma aspirated and frozen at 20° C. until analysis. Quantitative compound level analysis was carried out using LC-MS/MS methods. Pharmacokinetic data derived using PK Solutions 2.0, non-compartmental analysis. Oral bioavailability (% F) was calculated by taking the ratio of dose-normalised AUC values from oral versus parenteral dosing.
Data set [3] has as its system HCT-116 human colon cancer cells. The data set can be described thus: Cell-cycle effects, DNA content by flow cytometry. The data set is classed as cell-based. To be noted: HCT-116 cells, 0.62 μM, 48 hrs. How it is done: HCT-116 human colon cancer cells were treated with DMSO and A.12 at GI50 and […] respectively for a period of 48 hrs. The cells were analysed for their DNA content by flow cytometry.
This further indicates the efficacy of the compounds of the invention.
A general note: Flow cytometry measures light scatter and fluorescence of single cells or particles in a stream.

Turning to `COc1cc(OC)c(/C=C/S(=O)(=O)Cc2cnc(OC)c(N)c2)c(OC)c1` [A.10, (E)-2-methoxy-5-((2,4,6-trimethoxystyrylsulfonyl)methyl)pyridin-3-amine], the “inhibition of cell growth” value in data set [1] is “effectively inhibit cell growth”.
On the same count and under the same terms, next, `CCOC(=O)CNc1cc(CS(=O)(=O)/C=C/c2c(OC)cc(OC)cc2OC)cnc1OC` [A.13, (E)-ethyl 2-(2-methoxy-5-((2,4,6-trimethoxystyrylsulfonyl)methyl)pyridin-3-ylamino)acetate]: “effectively inhibit cell growth”.
Turning to `COc1cccc(OC)c1/C=C/S(=O)(=O)Cc1cnc(OC)c([N+](=O)[O-])c1` [A.17, (E)-5-((2,6-Dimethoxystyrylsulfonyl)methyl)-2-methoxy-3-nitropyridine], the “inhibition of cell growth” value in data set [1] was “effectively inhibit cell growth”.
Same read-out and setting: next, `COc1cc(OC)c(/C=C/S(=O)(=O)Cc2ccc(OC)c(N3CCCCC3)n2)c(OC)c1` [A.29, (E)-3-Methoxy-2-(piperidin-9-yl)-6-((2,4,6-trimethoxystyrylsulfonyl)methyl)pyridine]: “effectively inhibit cell growth”.
`COc1cc(OC)c(/C=C/S(=O)(=O)Cc2cnc(OC)c(NS(C)(=O)=O)c2)c(OC)c1` [A.12, (E)-N-(2-methoxy-5-((2,4,6-trimethoxystyrylsulfonyl)methyl)pyridin-3-yl)methanesulfonamide]: the “pharmacokinetic properties compared with ON01910.Na” value in data set [2] (IV and PO) is on record as “significantly improved pharmacokinetic properties”. Moreover, the “oral bioavailability (F)” value in data set [2] (oral, 10 mg/kg) is listed as 56%. Also, in data set [1], the “inhibition of cell growth” value is listed as “effectively inhibit cell growth”. Further, in data set [3], the “apoptosis (sub-G1 cells)” value is reported as “increased sub-G1 cells” and the “effect on cell cycle progression” value is “block of their cell cycle progression in G2/M phase”.
